Read-outs that look alike come from different tables or passages of the source. Residues, ends and D or L forms follow the SMILES beside them. No end group written: not given here. *: point of attachment. NHhexadecyl = CCCCCCCCCCCCCCCCN*
How the values were obtained:
[1] = test system: E. coli (ATCC25922); assay type: cell-based, Escherichia coli
Description: (§1) The MIC of arginine-based peptides was assessed using the microbroth dilution approach. Our in vitro screening included a panel of Gram-negative bacteria, Escherichia coli (ATCC 25922 and enterohaemorrhagic O157:H7) and Pseudomonas aeruginosa (PA01 and the drug-resistant strain NCTC 13437), and Gram-positive bacteria (Staphylococcus aureus ATCC 12600). Five-millilitre overnight cultures in Lysogeny broth, prepared from single isolated colonies, were diluted to 5×10^6 c.f.u. ml^−1 mid-log phase in Mueller–Hinton (MH) broth. Next, peptide concentrations (0 to 1 mM) were serially diluted twofold in 96-well plates and incubated overnight at 37 °C with the tested bacterial strains. In each case, the MIC was determined as the lowest peptide concentration at which no detectable bacterial growth was observed, employing an absorbance-based assay using a Tecan Spark® multimode plate reader. Subsequently, 10 µl aliquots from each peptide dilution were transferred to MH agar (1.5%) plates to determine the minimum bactericidal concentration (MBC) which was assessed by establishing at which concentration no visible growth of bacteria (assessed via colony formation) on the plate was observed.

[2] = test system: E. coli (O157:H7); assay type: cell-based, Escherichia coli; details: for MBC: 10 µl aliquots plated on MH agar, no visible colonies; for MIC: MH broth, 5×10^6 cells, 24 h, 37 °C, absorbance 600 nm, triplicate
Description: as §1

[3] = test system: P. aeruginosa (PA01); assay type: cell-based, Pseudomonas aeruginosa; details: for MIC: 24 h
Description: as §1

[4] = test system: S. aureus (ATCC12600); assay type: cell-based, Staphylococcus aureus
Description: as §1

[5] = test system: E. coli (25922); assay type: cell-based, Escherichia coli; details: for MIC, Control: control without serum or trypsin; for MIC, Trypsin: peptide incubated with 5 µM SGMT trypsin in 50 mM Tris-HCl, 1 mM CaCl2, pH 7.6, 24 h at 37 °C before MIC; for MIC, 20% human serum: peptide incubated with 20% human serum 24 h at 37 °C before MIC; for MIC, 50% human serum: peptide incubated with 50% human serum 24 h at 37 °C before MIC
Description: as §1
(§2) The antimicrobial activity and structural stability of arginine-rich peptides were evaluated in the presence of human serum (20% and 50 %) and 5 µM Sequencing Grade Modified Trypsin (SGMT, Promega). Briefly, fresh human blood was collected in EDTA tubes and allowed to clot at room temperature for 1 h. Serum was then collected following centrifugation at 2,000 r.p.m. for 10 min at 4 °C. Peptides were incubated with 20%, 50% human serum and 5 µM SGMT in 50 mM Tris-HCl buffer (1 mM CaCl₂, pH 7.6) for 24 h at 37 °C. After the incubation period, the solutions were further incubated with E. coli (ATCC 25922 and O157:H7), P. aeruginosa (PA01, NCTC13437) and S. aureus (ATCC12600), and the MIC was assessed as described in the ‘Antibacterial assessment’ section. Additionally, the samples were analysed using electrospray ionization MS to monitor structural changes based on the molecular weight of the peptides.

[6] = test system: P. aeruginosa (PA01); assay type: cell-based, Pseudomonas aeruginosa; details: for MIC, Control: control without serum or trypsin; for MIC, Trypsin: peptide incubated with 5 µM SGMT trypsin in 50 mM Tris-HCl, 1 mM CaCl2, pH 7.6, 24 h at 37 °C before MIC; for MIC, 20% human serum: peptide incubated with 20% human serum 24 h at 37 °C before MIC; for MIC, 50% human serum: peptide incubated with 50% human serum 24 h at 37 °C before MIC
Description: as §1, §2

[7] = test system: S. aureus (12600); assay type: cell-based, Staphylococcus aureus; details: for MIC, Control: control without serum or trypsin; for MIC, Trypsin: peptide incubated with 5 µM SGMT trypsin in 50 mM Tris-HCl, 1 mM CaCl2, pH 7.6, 24 h at 37 °C before MIC; for MIC, 20% human serum: peptide incubated with 20% human serum 24 h at 37 °C before MIC; for MIC, 50% human serum: peptide incubated with 50% human serum 24 h at 37 °C before MIC
Description: as §1, §2

[8] = test system: Gram-positive and Gram-negative bacteria; assay type: cell-based; details: span of MIC and MBC against both Gram-positive and Gram-negative bacteria, Table 2
Description: as §1

[9] = test system: L929 fibroblasts; assay type: cell-based; details: 24 h
Description: The toxicity screening of arginine-rich peptides was conducted in two cell types: human red blood cells (hRBCs) and L929 fibroblasts. The peptide-induced lysis of hRBCs was estimated based on the release of haemoglobin into solution, following a previously established protocol with slight modifications. Briefly, fresh human blood was collected from a healthy donor. To isolate hRBCs from plasma, the blood was centrifuged at 2,000 r.p.m. for 10 min at 4 °C, and the cells were carefully resuspended in 0.5% suspension buffer. After, they were added to a 96-well plate containing various concentrations of peptides diluted in PBS. After incubation for 1 h at 37 °C, cells were spun at 2,000 r.p.m. for 10 min at 4 °C to pellet cell debris and the supernatant collected and measured at OD414. The data was calculated as the % haemolysis relative to the positive control (cells treated with 1% Triton X-100). The toxicity screening using L929 fibroblasts was based on the metabolic activity of cells using an MTS colourimetric assay (Fig. S2). […] The absorbance was measured at OD490 using a Tecan Spark multimode plate reader. The quantification of viable cells was expressed as a % and determined by comparing peptide-treated groups with control cells grown in their absence. […]

[10] = test system: E. coli ATCC 25922; assay: Cytoplasmic membrane depolarization, DiSC3(5); assay type: cell-based, Escherichia coli; details: peptide at 2× MIC or 1,000 µM, positive control Triton X-100
Description: The dye 3,3′-dipropylthiadicarbocyanine iodide DiSC3(5) was employed to evaluate perturbation of the bacterial membrane by our designed arginine-rich peptides. For this, a black 96-well microtiter plate containing 150 µl E. coli cells (OD600=0.5) in MH broth per well was incubated with 0.5 µM DiSC3(5) in 5 mM HEPES buffer (pH 7.4, supplemented with 5 mM glucose and 0.1 M KCl) for 15 min to allow for fluorescence quenching. Then, 2× MIC or 1 mM peptide was added, and changes in fluorescence were monitored in real-time (λex=622 nm, λem=670 nm) using a microplate reader.

[11] = test system: P. aeruginosa (NCTC13437); assay type: cell-based, Pseudomonas aeruginosa; details: P. aeruginosa NCTC13437 (drug-resistant)
Description: as §1

[12] = target: T1, Sequencing Grade Modified Trypsin (Sus scrofa, UniProt P00761); assay: Stability with trypsin by LC-MS; assay type: in vitro ADME; details: 5 µM SGMT trypsin, 50 mM Tris-HCl, 1 mM CaCl2, pH 7.6, 24 h, 37 °C; read-out LC-MS (ESI)
T1 construct: purchased Promega
T1 sequence (P00761 9-231): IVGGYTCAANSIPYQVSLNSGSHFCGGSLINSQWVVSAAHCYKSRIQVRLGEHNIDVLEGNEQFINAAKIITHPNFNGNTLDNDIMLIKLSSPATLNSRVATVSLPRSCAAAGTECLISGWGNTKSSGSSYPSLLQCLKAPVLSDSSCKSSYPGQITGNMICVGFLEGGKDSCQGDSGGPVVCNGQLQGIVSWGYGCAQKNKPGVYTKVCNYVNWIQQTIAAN
Description: as §2

[13] = E. coli ATCC25922, 10 µl aliquots plated on MH agar, no visible colonies
[14] = E. coli ATCC25922, MH broth, 5×10^6 cells, 24 h, 37 °C, absorbance 600 nm, triplicate
[15] = P. aeruginosa PA01, 10 µl aliquots plated on MH agar, no visible colonies
[16] = P. aeruginosa PA01, MH broth, 5×10^6 cells, 37 °C, absorbance 600 nm, triplicate
[17] = S. aureus ATCC12600, 10 µl aliquots plated on MH agar, no visible colonies
[18] = S. aureus ATCC12600, MH broth, 5×10^6 cells, 24 h, 37 °C, absorbance 600 nm, triplicate

| Compound | MBC [1, 13] | MIC [1, 14] | MBC [2] | MIC [2] | MBC [3, 15] | MIC [3, 16] | MBC [4, 17] | MIC [4, 18] | MIC, Control [5] | MIC, Trypsin [5] | MIC, 20% human serum [5] | MIC, 50% human serum [5] | MIC, Control [6] | MIC, Trypsin [6] | MIC, 20% human serum [6] | MIC, 50% human serum [6] | MIC, Control [7] | MIC, Trypsin [7] | MIC, 20% human serum [7] | MIC, 50% human serum [7] | also measured |
| --- | --- | --- | --- | --- | --- | --- | --- | --- | --- | --- | --- | --- | --- | --- | --- | --- | --- | --- | --- | --- | --- |
| CCCCCCCCCCCCCCCCNC(=O)[C@H](Cc1ccccc1)NC(=O)[C@H](Cc1ccccc1)NC(=O)[C@H](Cc1ccccc1)NC(=O)[C@H](Cc1ccccc1)NC(=O)[C@H](CCCNC(=N)N)NC(=O)[C@H](CCCNC(=N)N)NC(=O)[C@H](CCCNC(=N)N)NC(=O)[C@@H](N)CCCNC(=N)N [Peptide R4F4-C16] (H-RRRRFFFF-NHhexadecyl; N-terminus and C-terminus assumed) | 1,000/>1,000 μM | 1,000/>1,000 μM | >1,000/>1,000 μM | >1,000/>1,000 μM | >1,000/>1,000 μM | >1,000/>1,000 μM | >1,000/>1,000 μM | >1,000/>1,000 μM | 1,000 μM | >1,000 μM | 1,000 μM | >1,000 μM | >1,000 μM | >1,000 μM | >1,000 μM | >1,000 μM | >1,000 μM | >1,000 μM | >1,000 μM | >1,000 μM | MIC and MBC values over all tested strains [8]: > 1,000 µM; EC50 [9]: 70 µM; Cytoplasmic membrane depolarization, DiSC3(5) fluorescence [10]: Greater effects |
| RRRRAAAA [Peptide R4A4] | 1,000/>1,000 μM | 1,000/>1,000 μM | >1,000/>1,000 μM | >1,000/>1,000 μM | >1,000/>1,000 μM | >1,000/>1,000 μM | >1,000/>1,000 μM | >1,000/>1,000 μM | 1,000 μM | >1,000 μM | 1,000 μM | >1,000 μM | >1,000 μM | >1,000 μM | >1,000 μM | >1,000 μM | >1,000 μM | >1,000 μM | >1,000 μM | >1,000 μM |  |
| RRARSAVAS [RRARSAVAS] | >1,000/>1,000 μM | >1,000/>1,000 μM | >1,000/>1,000 μM | >1,000/>1,000 μM | >1,000/>1,000 μM | >1,000/>1,000 μM | >1,000/>1,000 μM | >1,000/>1,000 μM | >1,000 μM | >1,000 μM | >1,000 μM | >1,000 μM | >1,000 μM | >1,000 μM | >1,000 μM | >1,000 μM | >1,000 μM | >1,000 μM | >1,000 μM | >1,000 μM | MBC ([11]; 10 µl aliquots plated on MH agar, no visible colonies): >1,000/>1,000 μM; MIC ([11]; MH broth, 5×10^6 cells, 24 h, 37 °C, absorbance 600 nm, triplicate): >1,000/>1,000 μM |
| RRRRVVVV [Peptide R4V4] | 1,000/>1,000 μM | 1,000/>1,000 μM | 1,000/>1,000 μM | 1,000/>1,000 μM | >1,000/>1,000 μM | >1,000/>1,000 μM | >1,000/>1,000 μM | >1,000/>1,000 μM | 1,000 μM | >1,000 μM | 1,000 μM | >1,000 μM | >1,000 μM | >1,000 μM | >1,000 μM | >1,000 μM | >1,000 μM | >1,000 μM | >1,000 μM | >1,000 μM |  |
| PRRRRFFFF [PR4F4] |  |  |  |  |  |  |  |  |  |  |  |  |  |  |  |  |  |  |  |  | MBC ([1]; ATCC25922): 125 µM; MIC ([1]; ATCC25922, 24 h): 62.5 µM |
| RRRRFFFF [Peptide R4F4] |  |  |  |  |  |  |  |  |  |  |  |  |  |  |  |  |  |  |  |  | MBC [3]: 250 µM; MIC [3]: 125 µM; MBC ([4]; ATCC12600): 250 µM; MIC ([4]; ATCC12600, 24 h): 125 µM; Stability with trypsin (LC chromatogram and mass spectrum) [12]: degraded into smaller fragments; EC50 [9]: 481 µM |

— article PMC12873548, “D-amino acid substitution and cyclization enhance the stability and antimicrobial activity of arginine-rich peptides” (Microbiology, 2026)
